Experimental findings from patent publication US20260184663A1, “INDENE COMPOUNDS, PHARMACEUTICAL COMPOSITIONS THEREOF, AND THEIR THERAPEUTIC APPLICATIONS” (NucMito Pharmaceuticals co. Ltd., priority 2022, published 2026) are described below.

Holding throughout (format): cell-based
The subject of test [1] is A431 (epidermoid carcinoma). In words: Antiproliferative activity (CCK-8 cell viability), A431. The following applies: Homo sapiens, 72 h, read-out: Antiproliferative activity in cancerous cells, A431 (inhibition of cell growth); for inhibition at 3.3 µM: A-431, Compound concentration: 3.3 μM; for inhibition at 10 µM: A-431, Compound concentration: 10 μM. An outline of the steps: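 This growth inhibition assay used A431 cells maintained in Dulbecco's modified Eagle's medium plus 10% fetal bovine serum. Cells were seeded in 96-well plates, treated with compound for 72 h at 37° C., and then given 10 μL CCK-8 solution. After a further 4 h, absorbance was read at 450 nm.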

Test [2] has as its system A549 (lung adenocarcinoma). Nature of the test: Antiproliferative activity (CCK-8 cell viability), A549. The following applies: Homo sapiens, 72 h, read-out: Antiproliferative activity in cancerous cells, A549 (inhibition of cell growth); for inhibition at 3.3 µM: Compound concentration: 3.3 μM; for inhibition at 10 µM: Compound concentration: 10 μM. An outline of the steps: (§1)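 Growth inhibition graded in bands from percent viability against DMSO vehicle, read as CCK-8 absorbance at 450 nm. Compound tested at 3.3, 10 or 30 μM for 72 h, 37 °C; media contained 10% FBS: DMEM for HepG2/SW480, MEM for HeLa, F-12K for A549.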

The subject of test [3] is SW480 (colon cancer). In words: Antiproliferative activity (CCK-8 cell viability), SW480. The following applies: Homo sapiens, 72 h, read-out: Antiproliferative activity in cancerous cells, SW480 (inhibition of cell growth); for inhibition at 3.3 µM: Compound concentration: 3.3 μM; for inhibition at 10 µM: Compound concentration: 10 μM. Summed up: as §1
Test [4] concerns HepG2 (liver cancer). Nature of the test: Antiproliferative activity (CCK-8 cell viability), HepG2. The conditions noted are these: Homo sapiens, 72 h, read-out: Antiproliferative activity in cancerous cells, HepG2 (inhibition of cell growth); for inhibition at 3.3 µM: Compound concentration: 3.3 μM; for inhibition at 10 µM: Compound concentration: 10 μM. Summed up: as §1
Test [5] relates to alpha-smooth muscle actin (α-SMA). Nature of the test: Inhibition of TGF-β induced expression of alpha-smooth muscle actin (α-SMA) in CFSC cells (western blot). The following applies: compound at 10 μM, TGF-β (10 ng/mL), 24 hours, band intensity vs TGF-β only. On the procedure:
The ability of a compound to inhabit the TGF-β induced expression of alpha-smooth muscle actin (α-SMA) was evaluated in CCl4-treated fat storing (CFSC) cells. α-SMA is considered as a reliable marker of hepatic stellate cell activation and a key biomarker for liver fibrosis.
CFSC cells maintained in a DMEM medium supplemented with 10% fetal bovine serum were seeded to 12-well culture dishes and grown to a confluence of 60-70% the next day. Culture was changed to a serum-free DMEM medium, and the cells were treated with a compound at 10 μM in the presence of TGF-β (10 ng/mL). The cells were incubated for another 24 hours. All culture was maintained at 37° C. in 5% carbon dioxide.
An NP-40 lysate solution (50 mM Tris (pH 7.4), 150 mM NaCl, 1% NP-40) with EDTA free cocktail added was used to lyse the cells on ice for 30 min. The lysate was collected and centrifuged at 4° C. for 10 min at 12,000 rpm. The pellet was discarded and the supernatant was transferred to a new tube. Cell lysates were loaded with 5× loading buffer and boiled for 10 min, resolved by 10% SDS-polyacrylamide gel electrophoresis (SDS-PAGE), and transferred to PVDF membrane. The membrane was blocked with 5% skim milk in Tris-buffered saline and TWEEN® 20 (TBST; 10 mM Tris-HCl (pH 8.0), 150 mM NaCl, 0.1% TWEEN® 20) for 1 h at room temperature and then incubated with α-SMA and β-actin antibodies overnight at 4° C. After washing twice with TBST, the membrane was probed with a horseradish […] anti-immunoglobulin (1:5000 dilution) for 1 h at room temperature. After two subsequent rinses in TBST, immunoreactive products were reacted with ECL and visualized by a UVP CHEMSTUDIO™ imaging system. The western blotting bands are quantitated using an ImageJ software. The percentage of inhibition was obtained by calculating the percentage decrease in the band intensity compared to the one treated with TGF-β only.
The results are summarized in Table 1, where A represents a value no less of 80% inhibition, B represents a value less than […] but no less than […], C represents a value less than 50% but no less than 30% inhibition, and D represents a value less than 30% inhibition with a compound at 10 μM.
In general terms: Immunoblotting shows a protein as a band on a membrane.

Test [6] deals with B16F10 (malignant melanoma). Nature of the test: Antiproliferative activity (CCK-8 cell viability), B16F10. The conditions noted are these: Mus musculus, 72 h, read-out: Antiproliferative activity in cancerous cells, B16F10 (inhibition of cell growth); for inhibition at 3.3 µM: B16-F10, Compound concentration: 3.3 μM; for inhibition at 10 µM: B16-F10, Compound concentration: 10 μM. An outline of the steps: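 Cell growth inhibition was measured in B16F10 malignant melanoma cells with a Cell Counting Kit-8 viability assay. Cells were maintained in DMEM plus 10% fetal bovine serum, seeded at 2,000-5,000 cells/well in 96-well plates, and treated for 72 h at 37° C. Viability was expressed relative to DMSO-treated vehicle control wells.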

Test [7] concerns MDA-MB-231 (breast cancer). In words: Antiproliferative activity (CCK-8 cell viability), MDA-MB-231. The conditions noted are these: Homo sapiens, 72 h, read-out: Antiproliferative activity in cancerous cells, MDA-MB-231 (inhibition of cell growth); for inhibition at 3.3 µM: Compound concentration: 3.3 μM; for inhibition at 10 µM: Compound concentration: 10 μM. Summed up:
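Growth inhibition of human MDA-MB-231 breast cancer cells was assessed with a Cell Counting Kit-8. Cells cultured in DMEM plus 10% FBS were seeded at 2,000-5,000 cells/well, treated after attachment, and kept 72 h at 37° C. CCK-8 solution (10 μL) was added for 4 h, and absorbance at 450 nm was compared with DMSO-treated controls.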

The subject of test [8] is HeLa (cervical cancer). Nature of the test: Antiproliferative activity (CCK-8 cell viability), HeLa. The following applies: Homo sapiens, 72 h, read-out: Antiproliferative activity in cancerous cells, HELA (inhibition of cell growth); for inhibition at 3.3 µM: Compound concentration: 3.3 μM; for inhibition at 10 µM: Compound concentration: 10 μM. Summed up: as §1

Structures are written as SMILES.

As for `O=C(O)CC1=C(Cc2ccccc2)/C(=C/c2ccc(COc3ccccc3)cc2)c2ccc(F)cc21` [A1, (Z)-2-(2-Benzyl-5-fluoro-1-(4-(phenoxymethyl)benzylidene)-1H-inden-3-yl)-acetic acid], the inhibition (in general, the drop in the measured response relative to a control, in per cent) at 3.3 µM was 30 to 50% in test [1]; less than 30% in test [2]; not below 50% in test [3]; 30 to 50% in test [4]; 30 to 50% in test [6]; not below 50% in test [7]. Also, the inhibition at 3.3 µM in test [8] was not below 50%. For the same compound, the inhibition at 10 µM in test [1] is not below 50%; in test [2], 30 to 50%; in test [3] it was not below 50%; in test [4], not below 50%; in test [5], more than 80%; in test [6], not below 50%. Further, the inhibition at 10 µM in test [7] and in test [8] was not below 50% in each case.
Consider `CCC1=C(CC(=O)O)c2cc(F)ccc2/C1=C\c1ccc(COc2ccccc2)cc1` [A2, (Z)-2-(2-Ethyl-5-fluoro-1-(4-(phenoxymethyl)benzylidene)-1H-inden-3-yl)acetic acid], for which the inhibition at 3.3 µM in test [1] is less than 30%; in test [2], 30 to 50%; in test [3], less than 30%; in test [4] it was 30 to 50%; in test [6], 30 to 50%; in test [7], not below 50%. Further, in test [8], the inhibition at 3.3 µM was in the range of 30 to 50%. Further, the inhibition at 10 µM is 30 to 50% in test [1]; not below 50% in test [2]; less than 30% in test [3]; not below 50% in test [4]; more than 80% in test [5]; not below 50% in test [6]. Also, the inhibition at 10 µM in test [7] and in test [8] was not below 50% each time.
`O=C(O)CC1=C(CC2CCCC2)/C(=C/c2ccc(COc3ccccc3)cc2)c2ccc(F)cc21` [A3, (Z)-2-(2-(Cyclopentylmethyl)-5-fluoro-1-(4-(phenoxymethyl)benzylidene)-1H-inden-3-yl)acetic acid]: the inhibition at 3.3 µM in test [1] was not below 50%; in test [2], 30 to 50%; in test [3], not below 50%; in test [4] it was 30 to 50%; in test [6], not below 50%; in test [7] it was not below 50%. In addition, the inhibition at 3.3 µM in test [8] was 30 to 50%. For the same compound, the inhibition at 10 µM is not below 50% in test [1]; not below 50% in test [2]; not below 50% in test [3]; not below 50% in test [4]; more than 80% in test [5]; not below 50% in test [6]. In addition, the inhibition at 10 µM in test [7] and in test [8] was not below 50% in each case.
On to `CCCC1=C(CC(=O)O)c2cc(F)ccc2/C1=C\c1ccc(COc2ccccc2)cc1` [A4, (Z)-2-(5-Fluoro-1-(4-(phenoxymethyl)benzylidene)-2-propyl-1H-inden-3-yl)-acetic acid], for which the inhibition at 3.3 µM in test [1] was less than 30%; in test [2], 30 to 50%; in test [3] it was less than 30%; in test [4], 30 to 50%; in test [6], 30 to 50%; in test [7] it was not below 50%. Besides, the inhibition at 3.3 µM in test [8] was not below 50%. Further, the inhibition at 10 µM in test [1] was not below 50%; in test [2], not below 50%; in test [3] it was 30 to 50%; in test [4], not below 50%; in test [5], 50 to 80%; in test [6], not below 50%. Also, the inhibition at 10 µM in test [7] and in test [8] was not below 50% in each case.
In the case of `CCC1=C(CC(=O)O)c2cc(F)ccc2/C1=C\c1cccc(COc2ccccc2)c1` [A5, (Z)-2-(2-Ethyl-5-fluoro-1-(3-(phenoxymethyl)benzylidene)-1H-inden-3-yl)acetic acid], the inhibition at 3.3 µM is less than 30% in test [1]; 30 to 50% in test [2]; less than 30% in test [3]; 30 to 50% in test [4]; 30 to 50% in test [6]; not below 50% in test [7]. In addition, the inhibition at 3.3 µM in test [8] was in the range of 30 to 50%. Also, the inhibition at 10 µM in test [1] is not below 50%; in test [2], not below 50%; in test [3] it was not below 50%; in test [4], not below 50%; in test [5], more than 80%; in test [6] it was not below 50%. The inhibition at 10 µM in test [7] and in test [8] was not below 50% each time.
In test [5], `COc1cc(COc2ccc(F)cc2)ccc1/C=C1/C(C)=C(CC(=O)O)c2cc(F)ccc21` [B25, (Z)-2-(5-Fluoro-1-(4-((4-fluorophenoxy)methyl)-2-methoxybenzylidene)-2-methyl-1H-inden-3-yl)acetic acid] showed an inhibition at 10 µM of more than 80%.
Same read-out and setting: in the case of `CC1=C(CCC(=O)O)c2ccccc2/C1=C\c1cccc(Oc2ccccc2)c1` [C24, (Z)-3-(2-Methyl-1-(3-phenoxybenzylidene)-1H-inden-3-yl)propanoic acid] it was less than 30%; in that of `CC1=C(C=CC(=O)O)c2cc(F)ccc2/C1=C\c1ccc(Oc2ccc(F)cc2)cc1` [C33, 3-(5-Fluoro-1-((Z)-4-(4-fluorophenoxy)benzylidene)-2-methyl-1H-inden-3-yl)-acrylic acid], more than 80%; in that of `CC1=C(C(C)C(=O)O)c2ccccc2/C1=C\c1ccc(C(C)C)cc1` (stereo not shown) [D3, (Z)-2-(1-(4-Isopropylbenzylidene)-2-methyl-1H-inden-3-yl)propanoic acid], less than 30%.
